Reference: ChEMBL document CHEMBL1255549 (Bioorg Med Chem Lett, 2010)

Molecular target: Maltase-glucoamylase (Homo sapiens, UniProt O43451)
Test: Inhibition of human recombinant N-terminal domain of maltase-glucoamylase after 60 mins by glucose oxidase assay

Maltase-glucoamylase, sequence (O43451 whole entry, the tested form may be a part): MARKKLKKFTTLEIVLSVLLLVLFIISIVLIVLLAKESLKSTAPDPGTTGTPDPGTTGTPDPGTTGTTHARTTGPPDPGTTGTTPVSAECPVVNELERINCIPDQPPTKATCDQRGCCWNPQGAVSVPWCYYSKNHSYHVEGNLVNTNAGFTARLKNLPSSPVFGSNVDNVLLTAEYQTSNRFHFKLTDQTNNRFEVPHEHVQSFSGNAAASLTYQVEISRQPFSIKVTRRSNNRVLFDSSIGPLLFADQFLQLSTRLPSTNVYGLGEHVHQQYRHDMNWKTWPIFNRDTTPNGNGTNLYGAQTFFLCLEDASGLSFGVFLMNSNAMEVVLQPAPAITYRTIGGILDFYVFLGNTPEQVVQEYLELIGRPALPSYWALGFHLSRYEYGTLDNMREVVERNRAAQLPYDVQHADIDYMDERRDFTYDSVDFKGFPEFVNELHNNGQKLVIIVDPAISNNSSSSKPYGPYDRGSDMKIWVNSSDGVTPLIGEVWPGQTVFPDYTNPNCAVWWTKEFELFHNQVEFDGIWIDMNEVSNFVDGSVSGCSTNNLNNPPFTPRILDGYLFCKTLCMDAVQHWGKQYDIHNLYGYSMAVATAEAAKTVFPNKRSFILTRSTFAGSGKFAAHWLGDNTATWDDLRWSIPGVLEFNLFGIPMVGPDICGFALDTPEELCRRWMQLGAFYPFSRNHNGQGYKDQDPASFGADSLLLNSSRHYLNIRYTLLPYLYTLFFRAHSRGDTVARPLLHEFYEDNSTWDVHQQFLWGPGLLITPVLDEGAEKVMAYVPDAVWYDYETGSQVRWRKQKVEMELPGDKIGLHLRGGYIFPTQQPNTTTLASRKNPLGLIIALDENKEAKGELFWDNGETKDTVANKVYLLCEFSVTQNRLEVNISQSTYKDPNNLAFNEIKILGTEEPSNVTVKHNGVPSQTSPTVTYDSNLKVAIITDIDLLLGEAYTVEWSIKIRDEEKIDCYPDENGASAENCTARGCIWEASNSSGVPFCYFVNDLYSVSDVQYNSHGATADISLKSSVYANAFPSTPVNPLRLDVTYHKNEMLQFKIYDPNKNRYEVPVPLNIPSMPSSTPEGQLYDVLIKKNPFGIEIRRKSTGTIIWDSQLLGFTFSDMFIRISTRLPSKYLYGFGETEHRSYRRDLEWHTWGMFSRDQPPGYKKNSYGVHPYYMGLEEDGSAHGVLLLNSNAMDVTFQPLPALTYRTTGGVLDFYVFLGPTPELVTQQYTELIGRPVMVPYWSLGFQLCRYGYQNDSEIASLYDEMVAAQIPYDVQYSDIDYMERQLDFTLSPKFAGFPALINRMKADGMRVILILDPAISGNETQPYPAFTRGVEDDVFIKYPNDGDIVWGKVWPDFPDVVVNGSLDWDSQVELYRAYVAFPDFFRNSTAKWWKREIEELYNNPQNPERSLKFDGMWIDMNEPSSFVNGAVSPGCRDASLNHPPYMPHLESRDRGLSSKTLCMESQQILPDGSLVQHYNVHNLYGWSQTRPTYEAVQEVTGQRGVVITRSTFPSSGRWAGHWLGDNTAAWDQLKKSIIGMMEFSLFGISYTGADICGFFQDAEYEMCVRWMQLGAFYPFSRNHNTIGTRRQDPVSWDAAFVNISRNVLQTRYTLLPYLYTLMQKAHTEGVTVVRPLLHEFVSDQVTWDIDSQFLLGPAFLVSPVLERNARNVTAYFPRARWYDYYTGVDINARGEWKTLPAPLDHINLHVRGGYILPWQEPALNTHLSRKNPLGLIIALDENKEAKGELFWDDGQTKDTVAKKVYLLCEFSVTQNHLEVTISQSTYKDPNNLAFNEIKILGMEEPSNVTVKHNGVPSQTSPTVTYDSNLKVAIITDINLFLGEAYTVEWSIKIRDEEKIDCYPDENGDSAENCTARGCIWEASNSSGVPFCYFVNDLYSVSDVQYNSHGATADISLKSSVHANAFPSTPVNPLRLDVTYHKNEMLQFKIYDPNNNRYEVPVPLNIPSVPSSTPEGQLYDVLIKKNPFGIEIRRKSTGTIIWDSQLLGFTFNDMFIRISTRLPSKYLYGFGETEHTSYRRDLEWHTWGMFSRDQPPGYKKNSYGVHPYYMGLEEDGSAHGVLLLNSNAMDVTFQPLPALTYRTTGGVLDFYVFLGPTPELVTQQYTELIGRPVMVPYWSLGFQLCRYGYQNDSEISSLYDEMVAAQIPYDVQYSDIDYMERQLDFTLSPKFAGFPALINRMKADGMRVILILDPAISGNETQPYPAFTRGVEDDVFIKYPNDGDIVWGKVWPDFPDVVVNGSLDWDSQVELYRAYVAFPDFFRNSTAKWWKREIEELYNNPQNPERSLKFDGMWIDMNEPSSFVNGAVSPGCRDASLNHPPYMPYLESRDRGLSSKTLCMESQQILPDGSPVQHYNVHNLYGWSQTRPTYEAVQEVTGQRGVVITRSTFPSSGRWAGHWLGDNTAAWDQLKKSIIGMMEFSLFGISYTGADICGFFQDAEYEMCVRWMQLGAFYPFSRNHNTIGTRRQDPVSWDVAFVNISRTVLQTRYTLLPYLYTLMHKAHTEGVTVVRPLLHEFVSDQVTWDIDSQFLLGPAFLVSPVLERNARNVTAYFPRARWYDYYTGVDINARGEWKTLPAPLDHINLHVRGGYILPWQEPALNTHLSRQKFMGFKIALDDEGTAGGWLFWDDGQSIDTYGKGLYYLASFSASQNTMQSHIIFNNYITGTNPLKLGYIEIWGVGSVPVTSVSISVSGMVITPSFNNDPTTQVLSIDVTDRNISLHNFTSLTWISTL

`CO[C@@H]([C@H](O)[C@@H](O)CO)[C@H](O)C[S@+]1C[C@@H](O)[C@H](O)[C@H]1CO` showed a Ki of 500 nM.
